Source: US11766430B2, “Methods of using a phenoxypropylamine compound to treat pain” (Minerva Neurosciences, Inc., priority 2018, dated 2023)
“Also recorded” adds a separate entry of the source.

What was measured:
[1] = system: paclitaxel-induced neuropathy in rats; assay: Other antidepressants in paclitaxel-induced neuropathy, paw withdrawal threshold (Example 7); assay type: in vivo; conditions: 60 min. following administration
Protocol: Two classes of antidepressants were also evaluated in Paw Withdrawal Threshold (PWT) experiments: duloxetine, a serotonin norepinephrine reuptake inhibitor, and amitriptyline, a tricyclic antidepressant.
(§1) On day 22, post-paclitaxel administration (left-most columns in FIG. 16 correspond to rats not administered paclitaxel), rats were administered vehicle (second columns from left in FIG. 16) or duloxetine (orally) and PWT was assessed 60 min. following injection. Data represents mean±s.e.m. (* p<0.05 vs. vehicle/vehicle).
as §1, with “27,” for “22,”, “17” for “16”, “17)” for “16)”, “amitriptyline” for “duloxetine”, “vehicle/vehicle, #p<0.05 vs. paclitaxel/vehicle).” for “vehicle/vehicle).”

[2] = system: paclitaxel-induced peripheral neuropathic pain in rats; assay: Reversal of paclitaxel-induced peripheral neuropathic pain, paw withdrawal threshold, chronic administration (Example 6); assay type: in vivo, Male Sprague Dawley rats; conditions: for PWT compared to vehicle (in words): days 14, 21 and 28; for PWT after cessation of treatment (in words): 100 mg/kg orally, day 35, one week after cessation of treatment
Protocol: (§2) Male Sprague Dawley rats from Envigo were used in the study. Animals were received at approximately 250 g and housed 3 per cage upon arrival. All rats were examined, handled, and weighed prior to initiation of the study to assure adequate health and suitability. During the course of the study, 12/12 light/dark cycles was maintained. The room temperature was be maintained between 20 and 23° C. with a relative humidity maintained around 50%. Chow and water was provided ad libitum for the duration of the study. All testing was performed during the animal's light cycle phase.
(§3) Paclitaxel (2 mg/kg) was purchased from Biolyse Pharma and injected i.p. on four alternate days (day 1, 3, 5 and 7) for a total of 4 injections at a dose volume of 1 mL/kg.
(§4) Gabapentin (100 mg/kg) was dissolved in saline and administered orally at a dose volume of 1 mL/kg. For prevention study, gabapentin was administered on day 14, sixty minutes prior to test. For reversal study, gabapentin was administered once daily for 2 weeks. On test days it was administered 60 minutes prior to test.
Reversal study: MIN-117 (1, 3 and 10 mg/kg) was formulated in 0.5% (w/v) hydroxypropylmethyl cellulose (HPMC) 8°-120 centipoises in water and administered i.p once daily for 2 weeks at a dose volume of 1 mL/kg. On test days, MIN-117 was administered 2 hours prior to test.
(§5) Rats were administered paclitaxel (2 mg/kg) on four alternate days (days 1, 3, 5 and 7). Baseline and post treatment Paw Withdrawal Threshold (PWT) were evaluated using von Frey filaments (Semmes-Weinstein filaments, Stoelting, Wood Dale, Ill., USA) of varying stiffness (0.4, 0.7, 1.2, 2.0, 3.6, 5.5, 8.5, 10, 15, 26 g). Animals were placed on a perforated metallic platform and allowed to acclimate to their surroundings for a minimum of 15 minutes before each test session. Each filament was presented perpendicular to the plantar surface with sufficient force to cause slight buckling against the paw, and then held until a positive response is noted (paw sharply withdrawn). As described by Chaplan et al. 1994, once the threshold was crossed, the 2 responses straddling the threshold are retrospectively designated as the first 2 responses. Four additional responses were measured to stimuli varied sequentially up or down based on the animal's response. The 6 responses in the immediate vicinity of the threshold were used to calculate the 50% g threshold: 50% g threshold=(10^[Xf+k*d])/10000 Xf is the final filament used (in log units). The parameter k is from the Appendix 1 in Chaplan and was determined by the pattern of the von Frey responses (e.g. OXOXOX where ‘O’ indicates no response and ‘X’ denotes a withdrawal). The parameter d is the difference between stimuli which Chaplan used a constant d=0.224. To accommodate for the use of the 10 g and 26 g filaments, the exact difference between stimuli were used.
(§6) PWT was measured according to the Schematics in FIG. 9 (prevention) and FIG. 10 (reversal study).
Data was analyzed by analysis of variance (ANOVA) followed by post-hoc comparisons where appropriate. An effect will be considered significant if p<0.05. Data was represented as the mean and standard error to the mean (s.e.m). Statistical outliers that fell above or below 2 standard deviations of the mean were identified but not removed from the final analysis.

[3] = system: chemotherapy-induced peripheral neuropathic pain in rats; assay: Paclitaxel-induced peripheral neuropathic pain, paw withdrawal threshold with von Frey filaments, single administration (Example 5); assay type: in vivo, Male Sprague Dawley rats
Protocol: Assessment of neuropathic pain using von Frey filaments was performed. Rats were administered paclitaxel (2 mg/kg) on four alternate days (days 1, 3, 5 and 7). Baseline and post treatment paw withdrawal thresholds (PWT) were evaluated using von Frey filaments (Semmes-Weinstein filaments, Stoelting, Wood Dale, Ill., USA) of varying stiffness (0.4, 0.7, 1.2, 2.0, 3.6, 5.5, 8.5, 10, 15, 26 g). Animals were placed on a perforated metallic platform and allowed to acclimate to their surroundings for a minimum of 15 minutes before each test session. Each filament was presented perpendicular to the plantar surface with sufficient force to cause slight buckling against the paw, and then held until a positive response is noted (paw sharply withdrawn). As described by Chaplan, S. R. et al. “Qualitative Assessment of Tactile Allodynia in the Rat Paw” Journal of Neuroscience Methods, 53 (1994), 55-63 (“Chaplan”), once the threshold was crossed, the 2 responses straddling the threshold are retrospectively designated as the first 2 responses. Four additional responses were measured to stimuli varied sequentially up or down based on the animal's response. The 6 responses in the immediate vicinity of the threshold were used to calculate the 50% g threshold: 50% g threshold=(10^[Xf+k*d])/10000
Xf is the final filament used (in log units). The parameter k is from the Appendix 1 in Chaplan and was determined by the pattern of the von Frey responses (e.g. OXOXOX where ‘O’ indicates no response and ‘X’ denotes a withdrawal). The parameter d is the difference between stimuli which Chaplan used a constant d=0.224. To accommodate for the use of the 10 g and 26 g filaments, the exact difference between stimuli were used.
as §2, with “(from Envigo, Ind., USA)” for “from Envigo”, “12 h/12 h” for “12/12”, “phase. Every effort was made to minimize suffering of animals. Rats with baseline PWT less than 12 g were not included in the study. Rats were balanced by body weight and by their pre-paclitaxel PWT values. ANOVA found no significant differences between the treatment groups.” for “phase.”
Paclitaxel was purchased from Biolyse Pharma (Ontario, Canada) and was injected i.p. (2 mg/kg) on four alternate days (day 1, 3, 5 and 7) for a total of 4 injections at a dose volume of 1 mL/kg.
Rats were subsequently balanced and assigned to treatment groups based on post-paclitaxel PWT values. On test day, PWT was assessed two hours post vehicle or MIN-117 injections and one hour after gabapentin administration.
Gabapentin was purchased from Toronto Research Chemicals and was dissolved in saline and administered orally 60 minutes prior to test at a dose volume of 1 mL/kg. MIN-117 (1, 3 and 10 mg/kg), formulated in 0.5% (w/v) hydroxypropylmethylcellulose (HPMC, Sigma-Aldrich), was administered i.p. at a dose volume of 1 mL/kg. MIN-117 was administered 2 hours prior to test.

[4] = system: paclitaxel-induced peripheral neuropathic pain in rats; assay: Prevention of paclitaxel-induced peripheral neuropathic pain, paw withdrawal threshold, chronic administration (Example 6); assay type: in vivo, Male Sprague Dawley rats; conditions: 100 mg/kg orally on day 14, sixty minutes prior to test (acute)
Protocol: as §2, §3, §4
Prevention study: MIN-117 (10 mg/kg) was formulated in 0.5% (w/v) hydroxypropylmethyl cellulose (HPMC) 8°-120 centipoises in water and was administered i.p once daily for 7 or 14 days at a dose volume of 1 mL/kg. On test days, MIN-117 was administered 2 hours prior to test.
as §5, with “The 6 responses in the immediate vicinity of the threshold were used to calculate the 50% g threshold: 50% g threshold=(10^[Xf+k*d])/10000 Xf is the final filament used (in log units).” left out, “The parameter d is the difference between stimuli which Chaplan used a constant d=0.224. To accommodate for the use of the 10 g and 26 g filaments, the exact difference between stimuli were used.” left out
as §6
Data was analyzed by analysis of variance (ANOVA) followed by post-hoc comparisons where appropriate. […]

[5] = Body weight during the chemotherapy induced neuropathic pain study (Example 5); assay type: in vivo, Male Sprague Dawley rats; conditions: paclitaxel days 1, 3, 5, 7; test compound on day 14; repeated measures ANOVA
Protocol: as §2, with “(from Envigo, Ind., USA)” for “from Envigo”, “12 h/12 h” for “12/12”, “phase. Every effort was made to minimize suffering of animals. Rats with baseline PWT less than 12 g were not included in the study. Rats were balanced by body weight and by their pre-paclitaxel PWT values. ANOVA found no significant differences between the treatment groups.” for “phase.”

Compound: CN(C)CCC=C1c2ccccc2CCc2ccccc21 [amitriptyline]
- Effect on PWT in paclitaxel-treated rats (in words) ([1]; 3 mg/kg orally, day 27 post-paclitaxel): not found to reverse paclitaxel-induced neuropathy
- Effect on PWT in paclitaxel-treated rats (in words) ([1]; 10 mg/kg orally, day 27 post-paclitaxel): not found to reverse paclitaxel-induced neuropathy
- Effect on PWT in paclitaxel-treated rats (in words) ([1]; 30 mg/kg orally (highest dose tested), day 27 post-paclitaxel): only partially reversed

Compound: Cc1nnc(-c2cc3c(OC[C@@H](O)CN4CCC(c5ccc(Cl)c(Cl)c5)CC4)cccc3o2)o1 [Compound I, (2S)-1-(4-(3,4-dichlorophenyl)piperidin-1-yl)-3-((2-(5-methyl-1,3,4-oxadiazol-2-yl)benzofuran-4-yl)oxy)propan-2-ol]
- PWT compared to vehicle (in words) ([2]; 1 mg/kg i.p. once daily for 2 weeks, 2 hours post dosing): significant increases in pain with threshold
- PWT compared to vehicle (in words) ([2]; 3 mg/kg i.p. once daily for 2 weeks, 2 hours post dosing): significant increases in pain with threshold
- PWT compared to vehicle (in words) ([2]; 10 mg/kg i.p. once daily for 2 weeks, 2 hours post dosing): significant increases in pain with threshold

Compound: CNCC[C@H](Oc1cccc2ccccc12)c1cccs1 [duloxetine]
- Effect on PWT in paclitaxel-treated rats (in words) ([1]; 3 mg/kg orally, day 22 post-paclitaxel): no effect on PWT
- Effect on PWT in paclitaxel-treated rats (in words) ([1]; 10 mg/kg orally, day 22 post-paclitaxel): no effect on PWT
- Effect on PWT in paclitaxel-treated rats (in words) ([1]; 30 mg/kg orally, day 22 post-paclitaxel): no effect on PWT

Compound: NCC1(CC(=O)O)CCCCC1 [Gabapentin, reference compound]
- Paw withdrawal threshold (PWT) compared to vehicle (in words) ([3]; Day 14 after first paclitaxel, administered orally 60 minutes prior to test): significant increase in PWT
- Paw withdrawal threshold (PWT), Day 14 Avg., Mean ([3]; Paclitaxel + Gabapentin (100 mg/kg), oral, 60 minutes prior to test, Count 12): 19.633 g
- Mean Diff. of Day 14 Avg. PWT, Fisher's PLSD ([3]; Paclitaxel + Vehicle, Paclitaxel + Gabapentin (100 mg/kg)): −15.759
- PWT compared to vehicle (in words) [4]: significant increase in PWT; also recorded: significantly higher PWT
- Body weight during the study, between groups (in words) [5]: no significant difference between groups
- PWT compared to vehicle (in words) ([2]; 100 mg/kg orally once daily for 2 weeks (chronic), 1 hour post dosing): significant increase in PWT; also recorded: significantly higher PWT
- PWT after cessation of treatment (in words) [2]: returned to vehicle levels
- PWT after cessation of treatment (in words) ([2]; listed as gabapentin): no significant effect on PWT
